From patent US9359487B2, “Plasticizers based on mixed esters of succinate” (Proviron Holding N.V., priority 2012, dated 2016)

How the values were obtained:
Assay type in all cases: physicochemical
[1] = Weight loss test (volatility) of transparent plastisole PVC film at 100° C.; conditions: for Volatile: Weight difference @ 100° C. After 7 days (%) / Volatile: Weight difference @ 100° C. After 4 days (%): transparent PVC film, 50 phr plasticiser; for delta vs. ref. (weight difference after 4 days) / delta vs. ref. (weight difference after 7 days): versus DINP
Protocol: Their plasticising behaviour is compared in a plastisole based transparent PVC film.
(flooring type, top layer): Solvin 382NG 100 phr (obtainable from Solvay S.A., Belgium), plasticiser 50 phr, Ca/Zn stabiliser (Baerostab NT 306) 2.5 phr (obtainable from the company Baerlocher).
The transparent film so formed is subjected to amongst others a weight loss test (volatility) at 100° C. for respectively 4 and 7 days. The plasticiser efficiency is determined by means of a hardness measurement. A measure for the compatibility of the plasticiser is the transparency.

[2] = Volatility of pure plasticiser by thermal-gravimetrical analysis; conditions: 200° C./10 min, pure compound
[3] = Extraction of plasticiser in water from plastisole samples; conditions: plastisol, 50 phr plasticizer; for Extractions by H2O (Weight Difference %) 1 d: after 1 day; for Extractions by H2O (Weight Difference %) 7 d: after 7 days; for Extractions by H2O (Weight Difference %) dry: after drying the sample
Protocol: Various plastisoles were prepared on the basis of various plasticisers set forth in Table 1, according to the following formulae:
100 phr PVC (Vestolit B7021 ultra), 50 phr Plasticiser (Table 1), 3 phr ESBO (Drapex 39) (acting as anti-oxydans), 2 phr Ca/Zn stabiliser (Mark CZ 149).
Apart from the above, the viscosity property of the plastisole solution was determined after 24 h (viscosity vs. Shear) and the thickening was determined. Apart from this the extraction of the plasticiser in water (expressed as % weight gain/weight loss) after 1 day, 7 days were determined, as well as after drying the sample.

[4] = Volatility comparison of succinate and adipate ester (tests by the inventors); conditions: versus comparable adipate ester DEHA

CC(C)CCCCCCOC(=O)CCC(=O)OCCCCCCC(C)C [DINS, diisononylsuccinate]
Volatile: Weight difference @ 100° C. After 7 days (%) [1]: −24.50% | delta vs. ref. (weight difference after 4 days) [1]: ×7.6 | delta vs. ref. (weight difference after 7 days) [1]: ×6.1

CCCCC(CC)COC(=O)CCCCC(=O)OCC(CC)CCCC (centres unmarked) [DOA, Di-octyladepate]
Volatily plasticizer (weightloss [m %]) [2]: −18.4 m % | Extractions by H2O (Weight Difference %) 1 d [3]: 1% | Extractions by H2O (Weight Difference %) 7 d [3]: 2.1% | Extractions by H2O (Weight Difference %) dry [3]: 0.7%

CC(C)CCCCCCOC(=O)c1ccccc1 [INB, Isononyl Benzoate]
Volatily plasticizer (weightloss [m %]) [2]: −61.7 m % | Extractions by H2O (Weight Difference %) 1 d [3]: 0.9% | Extractions by H2O (Weight Difference %) 7 d [3]: 1.9% | Extractions by H2O (Weight Difference %) dry [3]: 0.5%

CCCCCC(CCC)COC(=O)CCC(=O)OCC(CCC)CCCCC (centres unmarked) [DPHS, di-(2-propylheptyl)succinate]
Volatile: Weight difference @ 100° C. After 4 days (%) [1]: −11.50% | Volatile: Weight difference @ 100° C. After 7 days (%) [1]: −17.60% | delta vs. ref. (weight difference after 4 days) [1]: ×5.0 | delta vs. ref. (weight difference after 7 days) [1]: ×4.4

CCCCC(CC)COC(=O)c1ccc(C(=O)OCC(CC)CCCC)cc1 (centres unmarked) [DOTP, Di-octyltherephthalate]
Volatily plasticizer (weightloss [m %]) [2]: −4.8 m % | Extractions by H2O (Weight Difference %) 1 d [3]: 0.8% | Extractions by H2O (Weight Difference %) 7 d [3]: 1.7% | Extractions by H2O (Weight Difference %) dry [3]: 0.7%

CC(C)CCCCCCOC(=O)c1ccccc1C(=O)OCCCCCCC(C)C [DINP, Di-isononylphthalate]
Volatily plasticizer (weightloss [m %]) [2]: −4.3 m % | Extractions by H2O (Weight Difference %) 1 d [3]: 0.8% | Extractions by H2O (Weight Difference %) 7 d [3]: 1.8% | Extractions by H2O (Weight Difference %) dry [3]: 0.7% | Volatile: Weight difference @ 100° C. After 4 days (%) [1]: −2.30% | Volatile: Weight difference @ 100° C. After 7 days (%) [1]: −4.00%

CCCCC(CC)COC(=O)CCC(=O)OCC(CC)CCCC (centres unmarked) [DEHSu, di-2-ethylhexyl-succinate]
volatility compared to di-2-ethylhexyl-adipate (DEHA) [4]: approximately twice as volatile
